# Legend:
# [1] = Cmax in mouse at 30 mg/kg, IG; assay type: ADME, organism-based; set-up: dose 30 mg/kg, route ig; conditions: in vivo, po
# [2] = Half life in mouse at 30 mg/kg, IG; assay type: ADME, organism-based; conditions: in vivo, po
# [3] = Stability in human liver microsomes assessed as parent compound remaining measured after 60 mins; assay type: ADME, Microsome; conditions: read-out: Stability
# [4] = Bioavailability in mouse at 30 mg/kg, IG; assay type: ADME, organism-based; conditions: in vivo, po
# [5] = Volume of distribution in mouse at 1 mg/kg, iv; assay type: ADME, organism-based; conditions: in vivo
# [6] = Half life in mouse at 1 mg/kg, iv; assay type: ADME, organism-based; conditions: in vivo
# [7] = molecular target: Tyrosine-protein kinase JAK2 (Homo sapiens, UniProt O60674); test: Inhibition of JAK2 dependent GM-CSF stimulated STAT3 phosphorylation in human TF-1 cells; assay type: cell-based
# [8] = AUC(0 to infinity) in mouse at 30 mg/kg, IG; assay type: ADME, organism-based; set-up: dose 30 mg/kg, route ig; conditions: in vivo, po
# JAK3/JAK1 = JAK3/JAK1 (Homo sapiens, UniProt P23458+P52333); test: Inhibition of JAK1/3 dependent IL-2 stimulated STAT5 phosphorylation in CD3-positive T cells (unknown origin); assay type: cell-based, CD3-positive T cell
# CYP2D6 = CYP2D6 (Homo sapiens, UniProt P10635); test: Inhibition of CYP2D6 (unknown origin) at 1 uM relative to control; assay type: ADME
# [9] = molecular target: Non-receptor tyrosine-protein kinase TYK2 (Homo sapiens, UniProt P29597); test: Inhibition of TYK2 dependent IFNalpha-stimulated STAT3 phosphorylation in human Jurkat cells; assay type: cell-based
# [10] = Toxicity in anti-CD40 induced immunodeficient Rag1 KO colitis mouse model assessed as body weight loss at 10 to 30 mg/kg, po bid administered for 6 days; assay type: organism-based; conditions: in vivo, 144 h, dose 10-30 mg/kg, time 6 day
# [11] = Tmax in mouse at 30 mg/kg, IG; assay type: ADME, organism-based; conditions: in vivo, po
# [12] = AUC(0 to infinity) in mouse at 1 mg/kg, iv; assay type: ADME, organism-based; set-up: dose 1 mg/kg, route iv; conditions: in vivo
# CYP2C9 = CYP2C9 (Homo sapiens, UniProt P11712); test: Inhibition of CYP2C9 (unknown origin) at 1 uM relative to control; assay type: ADME
# CYP2B6 = molecular target: T1, CYP2B6 (Homo sapiens, UniProt P20813); test: Inhibition of CYP2B6 (unknown origin) at 1 uM relative to control; assay type: ADME
# T1 sequence (P20813 whole entry): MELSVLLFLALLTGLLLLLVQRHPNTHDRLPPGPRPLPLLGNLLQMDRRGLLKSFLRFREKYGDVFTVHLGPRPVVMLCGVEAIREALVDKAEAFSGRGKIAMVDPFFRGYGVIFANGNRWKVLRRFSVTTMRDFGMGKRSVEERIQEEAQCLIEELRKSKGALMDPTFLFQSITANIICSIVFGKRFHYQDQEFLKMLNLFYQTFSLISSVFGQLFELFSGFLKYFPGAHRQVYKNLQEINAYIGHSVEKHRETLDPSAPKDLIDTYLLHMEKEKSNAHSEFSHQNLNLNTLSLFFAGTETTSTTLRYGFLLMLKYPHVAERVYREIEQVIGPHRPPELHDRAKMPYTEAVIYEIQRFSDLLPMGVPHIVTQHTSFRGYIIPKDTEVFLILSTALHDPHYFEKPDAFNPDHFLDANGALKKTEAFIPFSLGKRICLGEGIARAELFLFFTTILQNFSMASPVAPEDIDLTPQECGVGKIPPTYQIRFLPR
# [13] = MRT (0 to t) in mouse at 30 mg/kg, IG; assay type: ADME, organism-based; conditions: in vivo, po
# CYP2C19 = CYP2C19 (Homo sapiens, UniProt P33261); test: Inhibition of CYP2C19 (unknown origin) at 1 uM relative to control; assay type: ADME
# [14] = Clearance in mouse at 1 mg/kg, iv; assay type: ADME, organism-based; conditions: in vivo
# [15] = MRT (0 to t) in mouse at 1 mg/kg, iv; assay type: ADME, organism-based; conditions: in vivo
# [16] = C0 in mouse at 1 mg/kg, iv; assay type: ADME, organism-based; conditions: in vivo
# [17] = Plasma protein binding in anti-CD40 induced immunodeficient Rag1 KO colitis mouse model; assay type: ADME, cell-free; conditions: read-out: PPB (converted)
# CYP3A4 = CYP3A4 (Homo sapiens, UniProt P08684); test: Inhibition of CYP3A4 (unknown origin) at 1 uM relative to control; assay type: ADME
# [18] = Stability in mouse liver microsomes assessed as parent compound remaining measured after 60 mins; assay type: ADME, Microsome; conditions: read-out: Stability
# hERG (KCNH2) = hERG (KCNH2) (Homo sapiens, UniProt Q12809); test: Inhibition of human ERG at 10 uM by patch clamp method relative to control; assay type: toxicity
# CYP1A2 = molecular target: T2, CYP1A2 (Homo sapiens, UniProt P05177); test: Inhibition of CYP1A2 (unknown origin) at 1 uM relative to control; assay type: ADME
# T2 sequence (P05177 whole entry): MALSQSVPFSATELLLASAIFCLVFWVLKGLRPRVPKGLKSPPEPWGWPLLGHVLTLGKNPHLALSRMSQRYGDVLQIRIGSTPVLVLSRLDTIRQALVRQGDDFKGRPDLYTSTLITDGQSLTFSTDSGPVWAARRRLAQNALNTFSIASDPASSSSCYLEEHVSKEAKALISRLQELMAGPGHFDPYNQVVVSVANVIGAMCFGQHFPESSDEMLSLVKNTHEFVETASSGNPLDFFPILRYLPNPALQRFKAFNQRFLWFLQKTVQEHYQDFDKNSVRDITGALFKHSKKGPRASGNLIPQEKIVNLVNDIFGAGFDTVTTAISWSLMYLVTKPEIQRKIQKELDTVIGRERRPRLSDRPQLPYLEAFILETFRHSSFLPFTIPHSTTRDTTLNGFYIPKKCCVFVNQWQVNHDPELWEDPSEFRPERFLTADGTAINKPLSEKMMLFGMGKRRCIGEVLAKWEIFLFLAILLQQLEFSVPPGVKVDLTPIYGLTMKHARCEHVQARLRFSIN
# hERG (KCNH2), sequence (Q12809 whole entry): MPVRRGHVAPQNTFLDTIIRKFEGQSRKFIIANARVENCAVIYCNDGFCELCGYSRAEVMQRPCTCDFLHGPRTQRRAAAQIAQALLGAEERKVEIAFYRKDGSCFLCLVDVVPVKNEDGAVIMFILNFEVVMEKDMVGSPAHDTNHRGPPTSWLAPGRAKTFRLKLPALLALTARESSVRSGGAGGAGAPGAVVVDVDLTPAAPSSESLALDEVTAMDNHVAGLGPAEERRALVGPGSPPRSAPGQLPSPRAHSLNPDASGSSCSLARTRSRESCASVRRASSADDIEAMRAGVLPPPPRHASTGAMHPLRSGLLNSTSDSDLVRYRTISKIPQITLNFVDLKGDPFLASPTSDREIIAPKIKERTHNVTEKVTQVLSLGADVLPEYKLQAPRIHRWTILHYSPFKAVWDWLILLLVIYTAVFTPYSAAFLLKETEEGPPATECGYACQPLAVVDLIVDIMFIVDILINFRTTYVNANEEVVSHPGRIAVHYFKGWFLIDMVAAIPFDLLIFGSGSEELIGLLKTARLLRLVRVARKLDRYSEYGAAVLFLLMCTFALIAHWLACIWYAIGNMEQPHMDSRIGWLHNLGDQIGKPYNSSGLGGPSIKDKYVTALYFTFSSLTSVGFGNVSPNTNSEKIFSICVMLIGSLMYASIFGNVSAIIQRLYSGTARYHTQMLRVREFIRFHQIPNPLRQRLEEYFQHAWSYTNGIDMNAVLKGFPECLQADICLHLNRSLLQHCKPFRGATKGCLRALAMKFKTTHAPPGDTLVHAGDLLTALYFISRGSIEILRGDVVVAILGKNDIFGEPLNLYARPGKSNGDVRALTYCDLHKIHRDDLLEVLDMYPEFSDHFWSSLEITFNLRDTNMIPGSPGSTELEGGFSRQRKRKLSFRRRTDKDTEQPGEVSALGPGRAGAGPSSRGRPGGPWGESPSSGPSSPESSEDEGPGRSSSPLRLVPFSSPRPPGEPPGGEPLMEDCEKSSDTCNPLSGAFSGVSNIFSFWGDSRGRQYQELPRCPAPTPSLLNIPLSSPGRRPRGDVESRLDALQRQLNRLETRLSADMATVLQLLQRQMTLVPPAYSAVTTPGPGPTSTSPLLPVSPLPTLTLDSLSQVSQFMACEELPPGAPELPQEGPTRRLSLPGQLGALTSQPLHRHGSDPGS
# Non-receptor tyrosine-protein kinase TYK2, sequence (P29597 whole entry): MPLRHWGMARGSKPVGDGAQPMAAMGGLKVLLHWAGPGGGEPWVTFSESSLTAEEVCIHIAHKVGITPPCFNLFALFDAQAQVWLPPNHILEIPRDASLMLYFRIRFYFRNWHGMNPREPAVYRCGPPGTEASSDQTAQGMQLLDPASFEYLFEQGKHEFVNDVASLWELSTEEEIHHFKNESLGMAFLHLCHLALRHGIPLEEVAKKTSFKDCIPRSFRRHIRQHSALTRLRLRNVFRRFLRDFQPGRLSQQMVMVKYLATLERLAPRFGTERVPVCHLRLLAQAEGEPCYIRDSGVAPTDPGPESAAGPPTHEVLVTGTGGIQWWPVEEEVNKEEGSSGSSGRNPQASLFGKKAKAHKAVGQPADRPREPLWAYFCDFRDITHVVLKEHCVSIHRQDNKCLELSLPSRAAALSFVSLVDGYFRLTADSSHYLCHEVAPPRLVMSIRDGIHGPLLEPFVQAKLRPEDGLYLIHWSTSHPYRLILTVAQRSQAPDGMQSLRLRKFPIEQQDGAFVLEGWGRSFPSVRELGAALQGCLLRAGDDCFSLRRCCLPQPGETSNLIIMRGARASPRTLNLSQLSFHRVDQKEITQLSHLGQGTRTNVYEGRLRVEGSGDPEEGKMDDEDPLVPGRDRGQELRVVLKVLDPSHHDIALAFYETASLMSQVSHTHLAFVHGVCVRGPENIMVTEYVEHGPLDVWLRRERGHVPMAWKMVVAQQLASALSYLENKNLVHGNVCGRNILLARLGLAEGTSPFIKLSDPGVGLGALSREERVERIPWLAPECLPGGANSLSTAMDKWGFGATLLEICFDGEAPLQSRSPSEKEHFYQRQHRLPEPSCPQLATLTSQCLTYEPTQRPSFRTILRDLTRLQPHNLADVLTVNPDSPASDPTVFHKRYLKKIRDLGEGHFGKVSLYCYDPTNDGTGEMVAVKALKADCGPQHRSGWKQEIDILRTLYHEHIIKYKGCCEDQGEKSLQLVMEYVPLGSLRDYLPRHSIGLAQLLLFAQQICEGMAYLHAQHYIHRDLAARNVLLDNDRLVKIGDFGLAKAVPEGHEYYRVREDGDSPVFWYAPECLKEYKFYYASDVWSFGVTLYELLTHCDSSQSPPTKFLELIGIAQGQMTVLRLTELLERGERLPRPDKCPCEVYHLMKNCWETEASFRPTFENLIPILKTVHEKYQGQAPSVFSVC
# CYP2D6, sequence (P10635 whole entry): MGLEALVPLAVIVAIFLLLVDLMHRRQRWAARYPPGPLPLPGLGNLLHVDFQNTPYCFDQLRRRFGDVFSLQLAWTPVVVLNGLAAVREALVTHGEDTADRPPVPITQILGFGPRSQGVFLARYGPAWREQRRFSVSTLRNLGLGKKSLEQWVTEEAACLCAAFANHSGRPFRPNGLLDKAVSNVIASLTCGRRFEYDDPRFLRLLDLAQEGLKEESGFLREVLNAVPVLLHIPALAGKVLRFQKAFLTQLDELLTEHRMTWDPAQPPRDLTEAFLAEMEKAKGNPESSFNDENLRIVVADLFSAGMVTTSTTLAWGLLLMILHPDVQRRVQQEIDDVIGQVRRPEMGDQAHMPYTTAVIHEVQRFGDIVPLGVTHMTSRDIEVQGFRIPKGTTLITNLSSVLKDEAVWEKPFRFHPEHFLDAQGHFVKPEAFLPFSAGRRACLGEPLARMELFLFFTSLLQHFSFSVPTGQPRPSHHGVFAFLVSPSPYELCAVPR
# CYP3A4, sequence (P08684 whole entry): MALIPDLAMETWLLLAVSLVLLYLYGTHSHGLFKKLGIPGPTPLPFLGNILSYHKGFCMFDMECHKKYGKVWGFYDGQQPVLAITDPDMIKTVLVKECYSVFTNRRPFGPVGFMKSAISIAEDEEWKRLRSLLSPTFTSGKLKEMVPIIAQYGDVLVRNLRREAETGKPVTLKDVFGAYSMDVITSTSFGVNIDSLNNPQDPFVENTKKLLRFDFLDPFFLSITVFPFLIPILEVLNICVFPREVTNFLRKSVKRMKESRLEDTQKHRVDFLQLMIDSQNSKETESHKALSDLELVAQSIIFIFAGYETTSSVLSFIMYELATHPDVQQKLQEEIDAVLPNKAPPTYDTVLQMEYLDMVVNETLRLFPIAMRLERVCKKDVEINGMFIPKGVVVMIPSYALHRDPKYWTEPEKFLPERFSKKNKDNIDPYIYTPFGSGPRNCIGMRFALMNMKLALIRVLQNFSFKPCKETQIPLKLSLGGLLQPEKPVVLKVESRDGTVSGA
# CYP2C9, sequence (P11712 whole entry): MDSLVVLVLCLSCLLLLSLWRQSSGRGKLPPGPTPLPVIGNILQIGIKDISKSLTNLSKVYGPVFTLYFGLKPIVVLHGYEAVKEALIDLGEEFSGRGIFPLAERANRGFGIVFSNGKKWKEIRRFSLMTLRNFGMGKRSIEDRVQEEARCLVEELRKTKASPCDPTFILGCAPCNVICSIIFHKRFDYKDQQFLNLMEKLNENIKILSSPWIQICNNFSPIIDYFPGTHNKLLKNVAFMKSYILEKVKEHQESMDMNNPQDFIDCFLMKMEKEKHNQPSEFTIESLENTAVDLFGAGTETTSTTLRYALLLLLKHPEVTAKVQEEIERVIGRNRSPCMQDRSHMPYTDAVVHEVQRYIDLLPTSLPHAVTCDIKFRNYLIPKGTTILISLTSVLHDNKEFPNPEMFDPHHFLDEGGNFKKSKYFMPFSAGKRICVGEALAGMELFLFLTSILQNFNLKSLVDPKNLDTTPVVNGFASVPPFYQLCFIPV
# Tyrosine-protein kinase JAK2, sequence (O60674 whole entry): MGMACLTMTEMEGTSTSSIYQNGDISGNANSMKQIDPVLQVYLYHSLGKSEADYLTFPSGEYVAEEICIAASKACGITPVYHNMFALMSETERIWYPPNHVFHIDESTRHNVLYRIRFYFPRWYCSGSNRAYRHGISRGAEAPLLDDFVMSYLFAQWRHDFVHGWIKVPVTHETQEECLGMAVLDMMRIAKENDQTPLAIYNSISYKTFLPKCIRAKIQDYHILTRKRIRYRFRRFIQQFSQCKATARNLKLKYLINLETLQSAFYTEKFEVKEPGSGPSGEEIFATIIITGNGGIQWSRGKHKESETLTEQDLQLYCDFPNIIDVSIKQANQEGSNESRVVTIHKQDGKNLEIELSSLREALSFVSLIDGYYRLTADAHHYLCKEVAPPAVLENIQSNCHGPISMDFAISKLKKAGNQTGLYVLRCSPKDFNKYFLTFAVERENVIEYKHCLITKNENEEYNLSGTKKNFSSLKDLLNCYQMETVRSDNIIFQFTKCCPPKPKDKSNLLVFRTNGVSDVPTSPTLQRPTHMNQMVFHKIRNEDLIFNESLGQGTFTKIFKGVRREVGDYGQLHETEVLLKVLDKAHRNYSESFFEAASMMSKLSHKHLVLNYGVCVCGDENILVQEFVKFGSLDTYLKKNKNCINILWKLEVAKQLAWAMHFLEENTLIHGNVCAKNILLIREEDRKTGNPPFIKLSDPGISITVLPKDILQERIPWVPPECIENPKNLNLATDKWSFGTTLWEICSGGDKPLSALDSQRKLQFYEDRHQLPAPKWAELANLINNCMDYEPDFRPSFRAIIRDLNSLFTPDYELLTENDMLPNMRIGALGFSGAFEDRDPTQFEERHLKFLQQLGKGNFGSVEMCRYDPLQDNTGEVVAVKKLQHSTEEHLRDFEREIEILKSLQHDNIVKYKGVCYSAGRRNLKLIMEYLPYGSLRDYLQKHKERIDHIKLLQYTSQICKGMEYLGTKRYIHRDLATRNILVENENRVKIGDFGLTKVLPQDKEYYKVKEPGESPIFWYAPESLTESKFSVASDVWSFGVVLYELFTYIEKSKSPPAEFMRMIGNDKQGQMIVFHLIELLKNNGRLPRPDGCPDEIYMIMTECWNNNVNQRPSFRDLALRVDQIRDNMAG
structure (smiles),measurement,setting,value
[2H]C([2H])([2H])NC(=O)c1nnc(NC(=O)C2CC2)cc1Nc1cccc(C(=O)Nc2ccc(-c3ncn(C4CC4)n3)cc2)c1OC,Cmax,[1],7100 ng/mL
same,half-life,[2],14.7 h
same,remaining at 1 h,[3],106%
same,F,[4],118.87%
same,Vd,[5],1.29 L/kg
same,half-life,[6],1.52 h
same,IC50,[7],2670 nM
same,AUC,[8],171069 ng·h/mL
same,IC50,JAK3/JAK1,972 nM
same,inhibition at 1 µM,CYP2D6,-9%
same,IC50,[9],4.8 nM
same,Activity,[10],Non-Toxic
same,Tmax,[11],4 h
same,AUC,[12],1694 ng·h/mL
same,inhibition at 1 µM,CYP2C9,7%
same,inhibition at 1 µM,CYP2B6,16.9%
same,MRT last,[13],5.21 h
same,inhibition at 1 µM,CYP2C19,-5.42%
same,clearance,[14],9.83 mL/min/kg
same,MRT last,[15],2.12 h
same,C0,[16],702 ng/mL
same,fraction unbound,[17],0.0022
same,inhibition at 1 µM,CYP3A4,5.25%
same,remaining at 1 h,[18],93.3%
same,inhibition at 10 µM,hERG (KCNH2),27.8%
same,inhibition at 1 µM,CYP1A2,1.18%

# — ChEMBL document CHEMBL5252617, “Design, synthesis and biological evaluation of novel N-(methyl-d3) pyridazine-3-carboxamide derivatives as TYK2 inhibitors” (Bioorg Med Chem Lett, 2023)
